{"source": "patent US20110046018A1", "about": "“SERS-BASED, SINGLE STEP, REAL-TIME DETECTION OF PROTEIN KINASE AND/OR PHOSPHATASE ACTIVITY” (priority 2007, published 2011)", "key": {"[1]": {"molecular_target": "Src kinase (Homo sapiens, UniProt P12931)", "sequence (P12931 whole entry)": "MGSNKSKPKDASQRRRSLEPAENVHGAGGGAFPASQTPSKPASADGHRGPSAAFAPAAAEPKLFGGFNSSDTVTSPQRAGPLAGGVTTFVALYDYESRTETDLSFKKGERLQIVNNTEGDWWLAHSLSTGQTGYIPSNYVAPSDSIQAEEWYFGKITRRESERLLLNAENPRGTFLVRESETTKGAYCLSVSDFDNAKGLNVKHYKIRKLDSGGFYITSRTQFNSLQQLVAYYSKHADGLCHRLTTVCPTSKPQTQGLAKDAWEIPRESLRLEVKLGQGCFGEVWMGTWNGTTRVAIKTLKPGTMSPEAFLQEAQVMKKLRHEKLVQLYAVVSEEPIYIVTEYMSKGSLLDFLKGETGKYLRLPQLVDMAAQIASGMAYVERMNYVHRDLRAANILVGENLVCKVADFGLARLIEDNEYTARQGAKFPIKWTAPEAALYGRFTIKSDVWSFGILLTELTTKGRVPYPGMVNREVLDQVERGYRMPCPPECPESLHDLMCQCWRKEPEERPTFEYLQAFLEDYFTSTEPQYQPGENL", "test": "SERS peptide-conjugated nanoprobe assay of Src kinase inhibition", "assay_type": "biochemical", "details": "with increasing concentration of inhibitor", "protocol": "Src kinase SERS probes were tested and calibrated using purified p60 cellular Src kinase first. The real time peptide SERS spectra were recorded in the reaction with 10 nM Src kinase at 37° C. […] The phosphorylation level was defined as the normalized ratio of peak intensities between 1004 cm^−1 and 1260 cm^−1. […] The real time phosphorylation level in the reactions was characterized with various concentrations of Src kinase. […] The reaction constants of the Src kinase at different concentration can be calculated using the Michaelis-Maten model.\nDifferent Src kinase inhibitors were tested using the peptide-conjugated nanoprobe assay. The phosphorylation level of the Src kinase with the addition of the inhibitors PP2, PP3 and SU5656 was tested. […] The IC50 concentrations for the three inhibitors were characterized respectively.\nA microscopy system with Raman spectrometer was used to acquire Raman scattering spectra from single nanocrescents. […] A 785 nm semiconductor laser was used in our experiments as the excitation source of Raman scattering, and the laser beam was focused by a 40× objective lens on the nanocrescent. The excitation power was measured by a photometer (Newport, Calif.) to be ˜0.8 mW. The Raman scattering light was then collected through the same optical pathway through a long-pass filter and analyzed by the spectrometer."}, "[2]": {"system": "substrate peptide for Src kinase (SEQ ID NO:1)"}, "[3]": {"molecular_target": "substrate peptide for Src kinase (SEQ ID NO:1)", "test": "cell-based or functional assay"}}, "note": "“Also recorded” adds a separate entry of the source.", "data": [{"compound": "CC(C)(C)n1nc(-c2ccc(Cl)cc2)c2c(N)ncnc21", "note": "[PP2]", "values": [{"measurement": "phosphorylation level of the Src kinase with the addition of the inhibitors", "setting": "[1]", "result": "decreases significantly"}]}, {"compound": "Nc1ncnc2c1cnn2-c1ccccc1", "note": "[PP3]", "values": [{"measurement": "phosphorylation level of the Src kinase with the addition of the inhibitors", "setting": "[1]", "result": "decreases significantly"}]}, {"compound": "CN(C)S(=O)(=O)c1ccc2c(c1)/C(=C/c1cc3c([nH]1)CCCC3)C(=O)N2", "note": "[SU5656]", "values": [{"measurement": "phosphorylation level of the Src kinase with the addition of the inhibitors", "setting": "[1]", "result": "decreases significantly"}]}, {"compound": "purified p60 cellular Src kinase", "values": [{"measurement": "minimal detectable concentration of Src kinase (SERS phosphorylation assay)", "setting": "[2]", "result": "the minimal detectable concentration is above 10 pM"}, {"measurement": "phosphorylation level (normalized ratio of peak intensities between 1004 cm^-1 and 1260 cm^-1, SERS)", "setting": "[2]", "result": "increased more than 6-fold after the reactions with 10 nM Src kinase; also recorded: The phosphorylation level saturated at around 7 for high concentration of Src kinase"}]}, {"compound": "virus Src protein (in crude lysate of transfected 3T9 mouse fibroblast cells) (enzyme)", "values": [{"measurement": "phosphorylation level (SERS, crude cell lysate)", "setting": "[3]", "result": 3, "unit": "times"}]}]}
